“Also recorded” adds a separate entry of the source.
Legend:
[1] = tested on: T1, mushroom tyrosinase (EC 1.14.18.1); test: Tyrosinase inhibition assay and kinetics (o-diphenolase activity, L-DOPA substrate); format: biochemical, Agaricus bisporus (mushroom); settings: for Type of inhibition: Lineweaver-Burk and Dixon plots
T1 construct: 22 U of mushroom tyrosinase (EC 1.14.18.1)
Protocol: The assay mixture contained sodium phosphate buffer (50 mM; pH 6.8), 22 U of mushroom tyrosinase (EC 1.14.18.1; Sigma Chemical Co., St. Louis, USA), L-DOPA substrate (1 mM), and Compound 2 dissolved in DMSO. The final concentration of DMSO in the assay mixture was 0.5%. The o-diphenolase inhibitory activity of Compound 2 was first screened at a final concentration of 30 μM using Ultrospec 2100 pro spectrophotometer (Amersham Biosciences, UK).
The kinetic assays included a range of substrate (0.25-2.0 mM) and Compound 2 concentrations (0.25, 0.5, 1.0, 2.0 μM). The […] was first incubated with the […] for 15 min. at 25° C. followed by addition of substrate. The reaction was continuously monitored in the spectrophotometer and the enzyme velocity was measured from the linear portion of the curve (7). The kinetics data were analyzed by Grafit 7.0.3 software (Erithacus Software Ltd., Staines, UK) utilizing the Lineweaver Burk plot {1/v versus 1/[S]} and the Ki values were calculated using the Dixon plot {1/v versus [I]}.

Compound | Type of inhibition [1] | fold more potent than kojic acid (by Ki) ([1]; Ki of kojic acid versus Ki of the compound) [fold] | IC50 ([1]; o-diphenolase activity, L-DOPA substrate, 25° C., pH 6.8, read-out: IC50 (μM ± SEM)) [µM] | Ki ([1]; o-diphenolase activity, L-DOPA substrate, Dixon plot, 25° C., pH 6.8, read-out: Ki (μM ± SEM)) [µM] | melting point [°C]
O=c1cc(CO)occ1O [Kojic acid, kojic acid, reference compound] | Competitive |  |  |  | 
NC(=S)N/N=C/c1ccc2[nH]ncc2c1 [Compound 2, 2-((1H-indazol-5-yl)methylene)hydrazinecarbothioamide] | competitive inhibitor; also recorded: competitive inhibition | 52 | 0.228 | 0.0843 | 258 to 262
